Data set [1] deals with T1, human PXR (Homo sapiens, UniProt O75469).
T1 sequence (O75469 1-434): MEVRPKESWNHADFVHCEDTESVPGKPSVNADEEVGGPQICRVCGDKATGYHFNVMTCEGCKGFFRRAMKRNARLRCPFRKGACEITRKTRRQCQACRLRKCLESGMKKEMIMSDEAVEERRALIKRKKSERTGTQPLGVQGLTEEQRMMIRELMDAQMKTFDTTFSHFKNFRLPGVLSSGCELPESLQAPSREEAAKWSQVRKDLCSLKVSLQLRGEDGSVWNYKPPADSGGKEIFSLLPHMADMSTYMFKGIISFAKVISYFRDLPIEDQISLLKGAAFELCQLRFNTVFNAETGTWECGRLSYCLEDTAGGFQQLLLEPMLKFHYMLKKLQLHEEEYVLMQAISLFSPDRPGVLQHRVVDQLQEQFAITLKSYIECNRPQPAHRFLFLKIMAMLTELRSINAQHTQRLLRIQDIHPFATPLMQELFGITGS

Data set [2] addresses T1, human PXR. Kind of data set: PXR activation luciferase reporter assay, human PXR in HepG2-NTCP cells. Background: A reporter such as luciferase makes a cellular process visible.
The next data set deals with T2, zebrafish PXR (Danio rerio, UniProt A5WYG8).
T2 sequence (A5WYG8 144-430): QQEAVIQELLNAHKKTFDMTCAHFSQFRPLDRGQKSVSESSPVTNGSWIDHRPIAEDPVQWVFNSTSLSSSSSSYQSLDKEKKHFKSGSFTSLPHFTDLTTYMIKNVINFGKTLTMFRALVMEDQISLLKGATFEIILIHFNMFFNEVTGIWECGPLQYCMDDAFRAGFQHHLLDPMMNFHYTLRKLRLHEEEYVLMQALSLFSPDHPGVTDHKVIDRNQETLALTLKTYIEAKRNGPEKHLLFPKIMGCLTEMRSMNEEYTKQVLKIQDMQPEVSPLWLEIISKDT

[3] abbreviates: -log(EC50), EC50 in molar units, activation of human PXR.
The mark [4] stands for this setting: -log(EC50), EC50 in molar units, activation of zebrafish PXR.
[5] abbreviates: hPXR Activity, -log(EC50), EC50 in molar units, activation of human PXR.
The mark [6] stands for this setting: relative to 20 μM 5α-androstan-3α-ol, assigned an efficacy of 1.0.

Like-named read-outs stand apart in the source and are kept apart here. A value given as a limit tells only on which side of the number the result lay.

Regarding `C[C@]12CC[C@H](OS(=O)(=O)O)CC1=CC[C@@H]1[C@@H]2CC[C@]2(C)C(=O)CC[C@@H]12` [AN12, 5-Androsten-3β-sulfate-17-one], the “hPXR Efficacy” value at human PXR [1] is listed as 0.22. Moreover, in the data set with HepG2 cells, the Toxicity entry is “None”. The “hPXR Activity” value on human PXR [2] (setting [3]) is given as 4.32. Also, at zebrafish PXR (setting [4]), the “zfPXR Activity” value was “None”.

Take `C[C@]12CC[C@H]3[C@@H](CCC4=CC(=O)CC[C@@]43C)[C@@H]1CC[C@H]2OS(=O)(=O)O` [AN17, 4-Androsten-17α-sulfate-3-one]: the “hPXR Efficacy” value on human PXR [1] is 0.67. Also, in the data set on HepG2 cells, the Toxicity result was “None”. Also, the “hPXR Activity” value on human PXR [2] (setting [3]) is reported as 5.47. On zebrafish PXR (setting [4]), the “zfPXR Activity” value is on record as “None”.

With `C[C@H](CCC(=O)NCCS(=O)(=O)O)[C@H]1CC[C@H]2[C@@H]3CC[C@@H]4C[C@H](OS(=O)(=O)O)CC[C@]4(C)[C@H]3CC[C@]12C` [BI44, 5β-Cholanic acid-3α-sulfate N-(2-sulfoethyl)-amide], on human PXR [1] (human, 1 day), the “hPXR Efficacy” value turned out to be 0.55. In the data set on HepG2 cells, the Toxicity entry is “None”. Moreover, the EC50 (usually the midpoint of the concentration-response curve) at human PXR [2] (setting [5]) is 83.2 µM. Moreover, the “zfPXR Activity” value on zebrafish PXR (setting [4]) is recorded as “None”.

Regarding `C[C@]12CC[C@@H]3c4ccc(OS(=O)(=O)O)cc4CC[C@H]3[C@@H]1CC[C@@H]2O` [ES10, 1,3,5(10)-Estratrien-17β-ol-3-sulfate], at human PXR [1], the “hPXR Efficacy” value was 0.6. For the same molecule, the Toxicity with HepG2 cells came to 200 µM. In addition, the “hPXR Activity” value at human PXR [2] (setting [3]) was found to be 6.05. On zebrafish PXR (setting [4]), the “zfPXR Activity” value is recorded as “None”.

Consider `CCOP(=S)(OCC)Oc1nc(Cl)c(Cl)cc1Cl` [MI10, Chlorpyrifos], for which, at human PXR [1] (human), the “hPXR Efficacy” value worked out at 2.05. For the same molecule, the Toxicity entry in the data set on HepG2 cells is reported as “None”. This molecule also showed a half-maximal effective concentration (EC50) on human PXR [2] (setting [5]) of 25.7 µM.

In the case of `Cc1cc(O)c(C)c2c1O[C@](C)(CCC[C@H](C)CCC[C@H](C)CCCC(C)C)CC2` [MI38, β-Tocopherol], the “hPXR Efficacy” value on human PXR [1] was found to be 0.33. The Toxicity with HepG2 cells is 100 µM. Also, the “hPXR Activity” value on human PXR [2] (setting [3]) was 4.85. Further, at zebrafish PXR (setting [4]), the “zfPXR Activity” value is given as “None”.

For the molecule `Cc1cc(O)cc2c1O[C@](C)(CCC[C@H](C)CCC[C@H](C)CCCC(C)C)CC2` [MI39, δ-Tocopherol], the “hPXR Efficacy” value at human PXR [1] was determined as 0.64. Moreover, the Toxicity with HepG2 cells is 100 µM. Besides, the “hPXR Activity” value at human PXR [2] (setting [3]) was 5.14. Further, the “zfPXR Activity” value at zebrafish PXR (setting [4]) is “None”.

On to `CC(O)C1CCC2C3CCC4CC(O)CCC4(C)C3CCC12C` (stereo not drawn) [PR1, 5β-Pregnan-3α,20α-diol], for which the “hPXR Efficacy” value at human PXR [1] is 0.34. Moreover, the Toxicity in the data set with HepG2 cells came out at 100 µM. Besides, on human PXR [2] (setting [3]), the “hPXR Activity” value is 5.29. Also, the “zfPXR Activity” value on zebrafish PXR (setting [4]) is “None”.

For `C[C@]12CC[C@H]3[C@@H](CCC4=CC(=O)CC[C@@]43C)[C@@H]1CC[C@@H]2C(=O)CO` [PR9, 4-Pregnen-21-ol-3,20-dione], the “hPXR Efficacy” value at human PXR [1] (human) is 0.3. The Toxicity in the data set on HepG2 cells (human) was 200 µM. Moreover, the EC50 at human PXR [2] (Human PXR EC50 (concentration class, Figure 2A)) is less than 10 µM. Besides, the EC50 at human PXR [2] (hPXR Activity) was 2.45 µM. On zebrafish PXR, the “Zebrafish PXR EC50 (concentration class, Figure 2B)” value was “Inactive” and the “zfPXR Activity” value is “None”.

As for `CC(=O)[C@H]1CC[C@H]2[C@@H]3CC[C@H]4C[C@H](O)CC[C@]4(C)[C@H]3CC[C@]12C` [PR14, 5α-Pregnan-3α-ol-20-one], the “hPXR Efficacy” value at human PXR [1] (human) was determined as 0.46. In addition, the Toxicity entry in the data set on HepG2 cells is recorded as “None”. In addition, a half-maximal effect on human PXR [2] (setting [5]) (EC50) was put at 4.17 µM.

Take `C[C@H](O)[C@H]1CC[C@H]2[C@@H]3CC[C@H]4C[C@H](O)CC[C@]4(C)[C@H]3CC[C@]12C` [PR15, 5α-Pregnan-3α,20α-diol]: the “hPXR Efficacy” value at human PXR [1] turned out to be 0.16. Besides, in the data set with HepG2 cells, the Toxicity result is listed as “None”. Also, the “hPXR Activity” value at human PXR [2] (setting [3]) is on record as 4.28. Also, the “zfPXR Efficacy” value at zebrafish PXR is recorded as 0.29. Moreover, the “zfPXR Activity” value at zebrafish PXR (setting [4]) is 4.58.

On to `C[C@H](O)[C@H]1CC[C@H]2[C@@H]3CC[C@@H]4C[C@H](O[C@@H]5O[C@H](C(=O)O)[C@@H](O)[C@H](O)[C@H]5O)CC[C@]4(C)[C@H]3CC[C@]12C` [PR16, 5β-Pregnan-3α,20α-diol-3-glucosiduronate], for which the “hPXR Efficacy” value at human PXR [1] was found to be 0.17. Moreover, the Toxicity entry in the data set with HepG2 cells is listed as “None”. Further, the “hPXR Activity” value on human PXR [2] (setting [3]) was 4.26. The “zfPXR Activity” value on zebrafish PXR (setting [4]) is on record as 4.78. Moreover, on zebrafish PXR (setting [6]), the “zfPXR Efficacy” value is listed as 1.42.

As for `C[C@]12CC[C@@H](O)C[C@H]1CC[C@@H]1[C@@H]2C(=O)C[C@@]2(C)[C@H]1CC[C@]2(O)[C@@H](O)CO` [PR18, 5β-Pregnan-3α,17,20α-21-tetrol-11-one], the “hPXR Activity” value at human PXR [1] is recorded as 4.35. In the data set with HepG2 cells, this molecule registered a Toxicity of 200 µM. The “zfPXR Activity” value at zebrafish PXR (setting [4]) stood at 4.34. In addition, the “zfPXR Efficacy” value on zebrafish PXR (setting [6]) is recorded as 0.25.

With `C[C@]12CC[C@@H](O)C[C@H]1CC[C@@H]1[C@@H]2C(=O)C[C@@]2(C)[C@H]1CC[C@]2(O)C(=O)CO` [PR19, 5β-Pregnan-3α,17,21-triol-11,20-dione], the “hPXR Activity” value at human PXR [1] is on record as 4.28. Moreover, the Toxicity result in the data set on HepG2 cells is given as “None”. For the same molecule, the “zfPXR Activity” value at zebrafish PXR (setting [4]) is reported as 4.43. The “zfPXR Efficacy” value on zebrafish PXR (setting [6]) was determined as 0.33.

`C[C@]12CC[C@@H](O)C[C@@H]1CC[C@@H]1[C@@H]2[C@@H](O)C[C@]2(C)[C@@H](C(=O)CO)CC[C@@H]12` [PR20, 5α-Pregnan-3α,11β,21-triol-20-one]: at human PXR [1], the “hPXR Efficacy” value was 0.26. In addition, in the data set with HepG2 cells, the Toxicity entry is reported as “None”. Besides, the “hPXR Activity” value on human PXR [2] (setting [3]) was 4.90. Besides, the “zfPXR Activity” value at zebrafish PXR (setting [4]) is reported as “None”.

As to `C[C@@H](O)[C@@]1(O)CC[C@H]2[C@@H]3CCC4=CC(=O)CC[C@]4(C)[C@H]3CC[C@@]21C` [PR21, 4-Pregnen-17α,20β-diol-3,20-dione], the “hPXR Activity” value at human PXR [1] is on record as “None”. Besides, the Toxicity in the data set with HepG2 cells worked out at 200 µM. Besides, at zebrafish PXR (setting [4]), the “zfPXR Activity” value was “None”.

Consider `C[C@@H](O)[C@H]1CC[C@H]2[C@@H]3CC[C@@H]4C[C@H](O)CC[C@]4(C)[C@H]3CC[C@]12C` [PR23, 5β-Pregnan-3α,20β-diol], for which the “hPXR Activity” value on human PXR [1] is 5.42. For the same molecule, in the data set with HepG2 cells, the Toxicity entry is “None”. Also, the “zfPXR Activity” value at zebrafish PXR (setting [4]) amounted to 5.95. Further, the “zfPXR Efficacy” value on zebrafish PXR (setting [6]) is 0.25.

Turning to `C[C@]12CC[C@@H](O)C[C@H]1CC[C@@H]1[C@@H]2[C@@H](O)C[C@@]2(C)[C@H]1CC[C@]2(O)C(=O)CO` [PR24, 5β-Pregnan-3α,11β,17,21-tetrol-20-one], the “hPXR Activity” value at human PXR [1] is on record as 4.33. Also, the Toxicity entry in the data set on HepG2 cells is “None”. Also, the “zfPXR Activity” value on zebrafish PXR (setting [4]) came to 3.94. The “zfPXR Efficacy” value at zebrafish PXR (setting [6]) was found to be 0.11.

As to `CC(=O)[C@H]1CC[C@H]2[C@@H]3CC[C@@H]4C[C@H](O)CC[C@]4(C)[C@H]3CC[C@]12C` [PR25, 5β-Pregnan-3α-ol-20-one], on human PXR [1], the “hPXR Efficacy” value was determined as 0.55. This molecule also registered a Toxicity in the data set with HepG2 cells of 100 µM. Also, the “hPXR Activity” value at human PXR [2] (setting [3]) stood at 4.98. The “zfPXR Activity” value on zebrafish PXR (setting [4]) is recorded as 6.64.

As for `CC(=O)[C@H]1CC[C@H]2[C@@H]3CC=C4C[C@@H](OS(=O)(=O)O)CC[C@]4(C)[C@H]3CC[C@]12C` [PR26, 5-Pregnen-20-one-3β-sulfate], at human PXR [1], the “hPXR Activity” value is on record as “None”. Also, in the data set with HepG2 cells, the Toxicity result is given as “None”. Further, the “zfPXR Activity” value at zebrafish PXR (setting [4]) worked out at 4.95. Moreover, the “zfPXR Efficacy” value at zebrafish PXR (setting [6]) is 0.23.

Vitamin K2 [MI45]: the “hPXR Efficacy” value on human PXR [1] is given as 0.80. The same molecule came in with a Toxicity in the data set on HepG2 cells of 100 µM. The “hPXR Activity” value on human PXR [2] (setting [3]) is given as 5.04. For the same molecule, the “zfPXR Activity” value on zebrafish PXR (setting [4]) is “None”.

(Values after article PMC2358886, “Evolution of pharmacologic specificity in the pregnane X receptor” (BMC Evolutionary Biology, 2008).)
